Values quoted from earlier work as cited in patent EP4374853A1, “SOLID FORMULATION OF ENZALUTAMIDE” (Lotus Pharmaceutical Co., Ltd., priority 2022, dated 2024).

Assays:
[1] = between pH 1-11

In the case of `CNC(=O)c1ccc(N2C(=S)N(c3ccc(C#N)c(C(F)(F)F)c3)C(=O)C2(C)C)cc1F` [Enzalutamide, 4-{3-[4-cyano-3-(trifluoromethyl)phenyl]-5,5-dimethyl-4-oxo-2-sulfanylideneimiidazolidin-1-yl}-2-fluoro-N-methylbenzymide], the “Solubility in aqueous media” value [1] is given as “practically insoluble” and the Permeability is given as “high permeability”.
